Measured values published in patent publication EP4792813A1, “USE OF […] PREPARATION OF DRUG FOR PREVENTING AND TREATING SEPSIS AND SEPSIS-INDUCED ORGAN DAMAGE” (Lunan Pharmaceutical Group Corporation, priority 2023, dated 2025).

Columns and labels:
Type in all cases: in vivo, C57BL/6J mice
[1] = test system: mice with LPS-induced sepsis; assay: Serum inflammatory factors (ELISA) in mice with LPS-induced sepsis; conditions: for serum inflammatory factor indices: result in words, compared with the model group; for IL-6 / TNF-α: serum, 24 h after LPS, x±s, n = 6
Procedure: (§1) After 1 week of acclimatization, mice were randomly divided into 8 groups: normal group, model group, positive control group, control group 1, control group 2, and compound I low-, medium- and high-dose groups, with 20 mice in each group. […] After the experiment was started, the normal group and model group were intraperitoneally injected with normal saline according to the body weight. The positive control group was intraperitoneally injected with 1 mg/kg dexamethasone. The Compound I low-, medium- and high-dose groups were intraperitoneally injected with 1 mg/kg, 2.5 mg/kg and 5 mg/kg compound I according to the body weight, respectively. The control group 1 was intraperitoneally injected with 5 mg/kg control compound 1 according to the body weight, and the control group 2 was intraperitoneally injected with 5 mg/kg control compound 2 according to the body weight. After 1 h, the normal group was intraperitoneally injected with normal saline according to the body weight, and the model group and each administration group were injected with 20 mg/kg LPS and then dissected 24 h later.
The blood samples were allowed to stand at room temperature for 1 h, followed by centrifugation at 3000 r/min to obtain serum. The serum was divided into two aliquots. One aliquot was processed in accordance with the instructions of TNF-α and IL-1β ELISA kits. Each well was measured at 450 nm using a microplate reader. The OD value of each sample was determined by subtracting the absorbance of the blank control well from the measured value. A standard curve was plotted based on the concentrations and OD values of standard samples to calculate the concentrations of the samples.

[2] = test system: mice with LPS-induced sepsis; assay: Serum biochemical parameters (ALT, AST, UREA, CREA-S) in mice with LPS-induced sepsis; parameters: CREA-S: unit not given here; conditions: for serum ALT, AST, UREA and CREA-S levels: result in words, compared with the model group; for ALT / AST / CREA-S / UREA: serum, 24 h after LPS, x±s, n = 7
Procedure: as §1
A series of operations were performed on the serum in accordance with the instructions of the kits to detect ALT, AST, UREA and CREA-S concentrations.

[3] = test system: mice with LPS-induced sepsis; assay: HE staining of kidney tissue sections in mice with LPS-induced sepsis; conditions: 24 h after intraperitoneal injection of 20 mg/kg LPS, compared with the model group, FIG. 1
Procedure: as §1
Mouse kidney tissue sections were stained using a hematoxylin-eosin (HE) staining method. First, the baked sections were dewaxed using xylene until the sections became transparent. The dewaxed sections were rinsed with ethanol to remove xylene and then rinsed with distilled water. […]

[4] = test system: mice with LPS-induced sepsis; assay: 48 h survival rate of mice with LPS-induced sepsis; conditions: within 48 h after 20 mg/kg LPS; result in words; FIG. 2
Procedure: as §1
4.4 After 48 h, the survival rate of the remaining 10 mice in each group was observed.

[5] = test system: mice with LPS-induced sepsis-associated encephalopathy; assay: Nissl staining of hippocampus in mice with LPS-induced sepsis-associated encephalopathy; conditions: 1, 2.5 and 5 mg/kg i.p. 1 h before 25 mg/kg LPS; 24 h; compared with the model group
Procedure: (§2) After 1 week of acclimatization, 60 male C57BL/6J mice were randomly divided into five groups: normal group, model group, Compound I low-dose group, Compound I medium-dose group and Compound I high-dose group, with 12 mice per group.
(§3) After the experiment was started, the normal group and model group were intraperitoneally injected with normal saline according to the body weight. The Compound I low-, medium- and high-dose groups were intraperitoneally injected with 1 mg/kg, 2.5 mg/kg and 5 mg/kg Compound I according to the body weight, respectively. After 1 h, the normal group was intraperitoneally injected with a corresponding volume of normal saline according to the body weight of the mice, while the model group and each administration group were injected with 25 mg/kg LPS. The administration volume was 10 mL/kg. After 24 h, the mice were anesthetized with pentobarbital sodium. The skull was opened and the brain was harvested, rinsed with normal saline, blotted dry with filter paper, and weighed. The brain index was calculated based on the following formula: Brain index = brain weight/body weight × 100% [formula]
The prepared sections were dried and dewaxed, and then stained with a Nissl staining solution for 90 min. […]

[6] = test system: mice with LPS-induced sepsis-associated encephalopathy; assay: Brain index in mice with LPS-induced sepsis-associated encephalopathy; conditions: 1, 2.5 and 5 mg/kg i.p. 1 h before 25 mg/kg LPS; 24 h; compared with the model group (p<0.01)
Procedure: as §2, §3

[7] = test system: mice with LPS-induced sepsis-associated encephalopathy; assay: Eight-arm maze test in mice with LPS-induced sepsis-associated encephalopathy; conditions: compared with the model group
Procedure: After 1 week of acclimatization, 60 male C57BL/6J mice were randomly divided into five groups: normal group, model group, compound I low-dose group, Compound I medium-dose group and Compound I high-dose group, with 12 mice in each group.
After the experiment was started, the normal group and model group were intraperitoneally injected with normal saline according to the body weight. The Compound I low-, medium- and high-dose groups were intraperitoneally injected with 1 mg/kg, 2.5 mg/kg and 5 mg/kg compound I, respectively. After 1 h, the normal group was intraperitoneally injected with a corresponding volume of normal saline according to the body weight of the mice, while the model group and each administration group were injected with 10 mg/kg LPS, with an administration volume of 10 mL/kg.
Behavioral tests were performed in an automated eight-arm maze. Before the experiment was started, all the mice were required to undergo acclimatization training. The food intake of the mice was restricted daily to facilitate the rapid finding and memorization of food pellets placed in the 1st, 2nd, 4th and 7th arms during the test. On day 1, an equal amount of food pellets was placed in each arm. The mice were placed in the maze and then allowed to explore freely for 300 s before acclimatization was terminated. Starting from day 2, the automatic doors were first closed, and the mice were placed in the center of the maze for 15 s. The automatic doors were then opened to release the mice for testing. The training was terminated when the time reached 300 s or the mice found the food pellets. The training was conducted for a total of five days. Working memory errors were defined as repeated entries by the mice into arms where food pellets had already been found and consumed. Reference memory errors were defined as entries into arms without food pellets. The total number of arm entries was recorded as the total arm entries. The time required for the mice to find all food pellets was defined as the test duration. On the day 7 of the experiment, a formal trial was initiated, and this step unchanged. The frequencies of working memory errors and reference memory errors were calculated based on the recorded working memory errors, reference memory errors and total arm entries.

[8] = test system: mice with LPS-induced sepsis-associated encephalopathy; assay: Novel object recognition test in mice with LPS-induced sepsis-associated encephalopathy; conditions: 1, 2.5 and 5 mg/kg i.p. on days 1-3, 7.5 mg/kg LPS on days 1 and 2; compared with the model group; FIG. 6
Procedure: as §2
On day 1 of the experiment, the normal group and model group were intraperitoneally injected with normal saline according to the body weight. The Compound I low-, medium- and high-dose groups were intraperitoneally injected with 1 mg/kg, 2.5 mg/kg and 5 mg/kg Compound I according to the body weight, respectively. After 1 h, the normal group was intraperitoneally injected with a corresponding volume of normal saline according to the body weight of the mice, while the model group and each administration group were injected with 7.5 mg/kg LPS. The administration volume was 10 mL/kg.
On day 2 of the experiment, the operations on day 1 were repeated. […]
The mice were individually placed in a square arena (40 × 40 × 40 cm) and allowed to move freely for 10 min. […] The time and frequency of mice contacting the objects or exploring within 2 cm of the objects (forepaws on the object, nose sniffing, or licking the object) were recorded. The preference index (PI) and discrimination index were calculated. […]

[9] = 5 mg/kg i.p. 1 h before 20 mg/kg LPS
[10] = 1 mg/kg i.p. 1 h before 20 mg/kg LPS
[11] = 2.5 mg/kg i.p. 1 h before 20 mg/kg LPS
[12] = 1, 2.5 and 5 mg/kg i.p. 1 h before 10 mg/kg LPS, best effect in medium-dose group, FIG. 5

Compound | serum inflammatory factor indices [1, 9] | IL-6 [1, 9] [pg] | TNF-α [1, 9] [pg] | serum ALT, AST, UREA and CREA-S levels [2, 9] | ALT [2, 9] [U/L] | AST [2, 9] [U/L] | CREA-S [2, 9] | UREA [2, 9] [mmol/L] | IL-6 [1, 10] [pg] | TNF-α [1, 10] [pg] | ALT [2, 10] [U/L] | AST [2, 10] [U/L] | UREA [2, 10] [mmol/L] | further results
O=C(c1cccc(O)c1)N1CCC(c2nc3cc(Cl)ccc3o2)CC1 [Control group 2] | no significant improvements | 24.56 ± 3.56 | 238.20 ± 9.79 | no significant improvements | 77.76 ± 12.51 | 265.20±31.82 | 43.99 ± 5.81 | 47.22 ± 3.39 |  |  |  |  |  | 
O=C(Nc1cccc(Cl)c1)C1CCN(C(=O)c2ccc3ccccc3c2)CC1 [Control group 1] | no significant improvements | 24.72 ± 4.03 | 244.20 ± 10.95 | no significant improvements | 78.19 ± 10.95 | 271.1 ± 25.31 |  | 46.47 ± 4.58 |  |  |  |  |  | 
C[C@@H]1C[C@H]2[C@@H]3CCC4=CC(=O)C=C[C@]4(C)[C@@]3(F)[C@@H](O)C[C@]2(C)[C@@]1(O)C(=O)CO [Positive control group, dexamethasone] |  |  |  |  |  |  |  |  | 16.49 ± 1.38 | 79.27 ± 4.86 | 58.94 ± 7.12 | 142.8 ± 21.78 | 20.69 ± 5.68 | 
Cn1c(C(=O)N2CCC(C(=O)Nc3cccc(Cl)c3)CC2)cc2ccccc21 [Compound I, N-(3-chlorophenyl)-1-(1-methyl-1H-indole-2-carbonyl)piperidine-4-carboxamide] |  | 17.04 ± 2.94 | 14.00 ± 2.29 |  | 59.61 ± 6.89 | 137.50 ± 26.26 | 20.80 ± 7.59 | 22.69 ± 10.33 | 20.10 ± 3.28 | 127.00 ± 16.42 | 69.44 ± 16.93 | 183.40 ± 37.18 | 35.56 ± 8.88 | IL-6 [1, 11]: 17.60 ± 3.20 pg; TNF-α [1, 11]: 76.30 ± 6.77 pg; CREA-S [2, 10]: 21.07 ± 5.89; ALT [2, 11]: 67.83 ± 19.01 U/L; AST [2, 11]: 180.20 ± 54.87 U/L; CREA-S [2, 11]: 18.64 ± 6.72; UREA [2, 11]: 26.02 ± 9.03 mmol/L; changes of renal tubules (abnormal dilation of renal tubules, atrophy of epithelial cells and lightening of cytoplasm), HE staining [3]: significantly ameliorated; survival rate [4]: significantly improve the survival rate; Nissl staining of the hippocampus region of the mouse brain tissue [5]: reduced neuronal pyknosis, recovered cell morphology and normal Nissl bodies; brain index [6]: significantly reduced; frequency of reference memory errors [7, 12]: decreased; frequency of working memory errors [7, 12]: decreased; test duration ([7]; medium- and high-dose groups (2.5 and 5 mg/kg i.p.), 10 mg/kg LPS): decreased; total numbers of arm entries ([7]; medium- and high-dose groups (2.5 and 5 mg/kg i.p.), 10 mg/kg LPS, most significant reduction in medium-dose group): decreased; discrimination index [8]: increased; preference index [8]: increased
